Laboratory results from US11053260B2, “Tri-cycle compound and applications thereof” (FUJIAN COSUNTER PHARMACEUTICAL CO., LTD., priority 2017, dated 2021).

System: HBV
Assay: HBV in vitro test in quantitative qPCR assay (HBV DNA content in HepG2.2.15 cells)
Format: cell-based
Conditions: Hepatitis B virus, HepG2.2.15, 192 h, HBV DNA by qPCR, day 8, read-out: 50% inhibitory concentration (EC50) value of HBV
Experimental: HBV In Vitro Test in Quantitative qPCR Assay
The HBV DNA content in HepG2.2.15 cells was determined by real-time quantitative qPCR assay (real time-qPCR), and the inhibitory effect of the compound on HBV was evaluated by the EC50 value of the compound.
2.1 Cell line: HepG2.2.15 cells
3.1 HepG2.2.15 cells (4×10^4 cells/well) were seeded into a 96-well plate and incubated overnight at 37° C. under 5% CO2.
3.2 On the 2nd day, the compound was diluted into 8 concentrations with 3-time gradient. The compounds with different concentrations were added into the culture wells in duplicate wells. The final concentration of DMSO in the culture medium was 1%. 1 μM GLS4 was used as a 100% inhibition control, and 1% DMSO was used as a 0% inhibition control.
3.3 On the 5th day, the culture medium was replaced with a fresh medium containing the compound.
3.4 On the 8th day, the culture medium in the culture well was collected, and the DNA was extracted with a high-throughput DNA purification kit (Qiagen-51162), of which specific procedure was referred to the product specification.
3.6 15 μL of the reaction mixture was added into each well of a 96-well PCR plate, followed by addition of 10 μL of sample DNA or HBV DNA standards into each well.
3.7 PCR reaction conditions: heating at 95° C. for 10 minutes; then denaturation at 95° C. for 15 seconds, extension at 60° C. for 1 minute, a total of 40 cycles.
3.8.1 Calculation of the percentage of inhibition: % Inh.=[1−(DNA copy number in sample−DNA copy number in 1 μM GLS4)/(DNA copy number in DMSO control−DNA copy number in 1 μM GLS4)]×100
3.8.2 Calculation of EC50: The 50% inhibitory concentration (EC50) value of the compound on HBV was calculated by GraphPad Prism software.

Row | SMILES | EC50 [nM]
1 | O=C(NCCC1COCCOC1)c1ccc2c(c1)NC(=O)c1cccn1S2(=O)=O [WX321] | 100 to 500
2 | CC(=O)N1CCOC(CCNC(=O)c2ccc3c(c2)NC(=O)c2cccn2S3(=O)=O)C1 (stereo not drawn) [WX322] | ≤ 100
3 | COC(=O)N1CCOC(CCNC(=O)c2ccc3c(c2)NC(=O)c2cccn2S3(=O)=O)C1 (stereo not drawn) [WX323] | ≤ 100
4 | CN1CCOC(CCNC(=O)c2ccc3c(c2)NC(=O)c2cccn2S3(=O)=O)C1 (stereo not drawn) [WX326] | ≤ 100
5 | O=C(NCCC1COCCO1)c1ccc2c(c1)NC(=O)c1cc(CC(F)(F)F)cn1S2(=O)=O (stereo not drawn) [WX328] | ≤ 100
6 | CC(C)c1cc2n(c1)S(=O)(=O)c1ccc(C(=O)NCCC3COCCO3)cc1NC2=O (stereo not drawn) [WX338] | 100 to 500
